Measurements as given in PubChem BioAssay (NCI).
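Dose response: 5 concentrations. Exposure: 48 h. Format: 96-well plates. Endpoint: linear interpolation; highest concentration if not reached. The concentration for full growth arrest is given as TGI.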

Columns and labels:
Assay in all cases: NCI tumour cell line growth inhibition, 48 h
LOX IMVI melanoma = tested on: LOX IMVI melanoma
NCI-H23 lung = tested on: NCI-H23 lung
SW-620 colon = tested on: SW-620 colon
U251 CNS = tested on: U251 CNS
DU-145 prostate = tested on: DU-145 prostate
MDA-MB-435 = tested on: MDA-MB-435
UO-31 renal = tested on: UO-31 renal
KM12 colon = tested on: KM12 colon
OVCAR-4 ovarian = tested on: OVCAR-4 ovarian
HT29 colon = tested on: HT29 colon
NCI-H226 lung = tested on: NCI-H226 lung
NCI-H522 lung = tested on: NCI-H522 lung
MALME-3M melanoma = tested on: MALME-3M melanoma
NCI-H460 lung = tested on: NCI-H460 lung
CAKI-1 renal = tested on: CAKI-1 renal
RXF 393 renal = tested on: RXF 393 renal
SK-MEL-28 melanoma = tested on: SK-MEL-28 melanoma
SK-MEL-2 melanoma = tested on: SK-MEL-2 melanoma
SF-295 CNS = tested on: SF-295 CNS
MDA-N = tested on: MDA-N

| SMILES | TGI (LOX IMVI melanoma) [µM] | TGI (NCI-H23 lung) [µM] | TGI (SW-620 colon) [µM] | TGI (U251 CNS) [µM] | TGI (DU-145 prostate) [µM] | TGI (MDA-MB-435) [µM] | TGI (UO-31 renal) [µM] | TGI (KM12 colon) [µM] | TGI (OVCAR-4 ovarian) [µM] | TGI (HT29 colon) [µM] | TGI (NCI-H226 lung) [µM] | TGI (NCI-H522 lung) [µM] | TGI (MALME-3M melanoma) [µM] | TGI (NCI-H460 lung) [µM] | TGI (CAKI-1 renal) [µM] | TGI (RXF 393 renal) [µM] | TGI (SK-MEL-28 melanoma) [µM] | TGI (SK-MEL-2 melanoma) [µM] | TGI (SF-295 CNS) [µM] | TGI (MDA-N) [µM] |
| --- | --- | --- | --- | --- | --- | --- | --- | --- | --- | --- | --- | --- | --- | --- | --- | --- | --- | --- | --- | --- |
| CN(C)CCCc1cccc2[nH]c3c(c12)CN(C)CC3 | > 100 | > 100 | > 100 | > 100 | > 100 | > 100 | > 100 | > 100 | > 100 | > 100 | > 100 | > 100 | > 100 | > 100 | > 100 | > 100 | > 100 | > 100 | > 100 | > 100 |
| O=C(CC(=O)N1N=C(N2CCCCC2)CC1c1ccccc1)Nc1ccccc1 (stereo not given) | > 100 | > 100 | > 100 | > 100 | > 100 | > 100 | > 100 | > 100 | > 100 | > 100 | > 100 | > 100 | > 100 | > 100 | > 100 | > 100 | > 100 | > 100 | > 100 | > 100 |
| COC(=O)/C=C1\C(=O)N(C(C)=O)c2ccc(Br)cc21 | 20.3 | 32.4 | 25.9 | 20 | 25.5 | 22 | 3.91 | 28.6 | 25.9 | 25 | 29.4 | 13.3 | 35.3 | 30.4 | > 47 | 21.2 | 28.6 | 27.7 | 31.6 | 24 |
| O=C1NC(=O)C(F)(n2cc(F)c(=O)[nH]c2=O)C(O)N1 (stereo not given) | > 10 | > 10 | > 10 | > 10 | > 10 | > 10 | > 10 | > 10 | > 10 | > 10 | > 10 | > 10 | > 10 | > 10 | > 10 | > 10 | > 10 | > 10 | > 10 | > 10 |
| O=C1CSC(/C=C/c2ccccc2)N1c1nc2cc3sc(N4C(=O)CSC4/C=C/c4ccccc4)nc3cc2s1 (stereo not given) | > 100 | > 100 | > 100 | > 100 | > 100 | > 100 | > 100 | > 100 | > 100 | > 67 | > 95.5 | > 100 | > 100 | > 100 | > 100 | > 100 | > 100 | > 100 | > 100 | > 100 |
| CC(C)OC(=O)c1ccc(CCC2=CC(=O)C=CC2=O)cc1 | 14.2 | 31.3 | 19.1 | 37.8 | 37 | 39.8 | 14.2 | 27 | 29.6 | 33.1 | 33.5 | 4.02 | 15.9 | 54.1 | 4.26 | 25.1 | 32.9 | 43.1 | 90.9 | 22.6 |
